Tested on: M6PR
Experiment: IHC staining of M6PR in WM35 tumors in NOD/SCID mice
Assay type: in vivo
Details: for tumor M6PR levels by immunohistochemistry: 50 mg/kg oral gavage
Description: In order to establish xenograft models, cultured WM35, WM35-BR, WM983B-BR-pAHygCMV2 and WM983B-BR-M6PR/IGF2R cells were harvested, suspended in sterile PBS, mixed in 2:1 ratio with Matrigel and injected subcutaneously into the left flank of mice (1-3×10^6 cells per mouse). PLX4720 was administered daily at dose 50 mg/kg for 10 days via oral gavage. As a control, mice treated with vehicle alone (2% DMSO, 50% PEG 300, 5% Tween 80) were used. Treatments were started when tumors were 0.5-0.8 cm in diameter.
Tumor tissues were harvested, fixed overnight with 4% paraformaldehyde (Electron Microscopy Science; Cat. no. 15710) at 4° C., embedded in paraffin blocks and 4-5 μm thick sections of the tissue were prepared and stained with polyclonal goat M6PR/IGF2R primary antibody (R&D Systems; Cat. no. AF2447; 5 μg/mL per samples) O/N at 4° C. Biotinylated 2nd antibody in 1:200 dilution was used for 30 min at RT followed by application of ABC solution ([…] and biotinylated horseradish peroxidase) for 30 min at RT. DAB 0.05% solution was applied for 3-4 min at RT. Hematoxylin was used for counterstaining the nucleus. Images were analyzed using Nis-Elements Ar (Advanced Research) Nikon 80i Upright Microscope with 40×N.A. objective. Each slide was scanned, images were manually captured at separate X, Y locations and a multipoint ND document was created point by point. A threshold value was defined for each image (for brown M6PR staining) using the single point selection tool. Results were exported to Excel for further analysis. (Acquisition Software: Nikon NIS-Elements Br (Basic research) 4.0, Camera Name: DS-Ri1-U3 40× Objective, Numerical Aperture: 0.95, Camera Settings: Format: 1280×1024 Fine, Exposure: ME 80 ms (−+0.0 EV))
Since hypoxia is an important component of the tumor microenvironment, we evaluated the effect of hypoxia on PLX4720-induced M6PR up-regulation. WM983B melanoma cells were exposed to 0.5% 02 during PLX4720 treatment. […] To understand the effect of PLX4720 on M6PR expression in vivo, WM35 tumor cells were injected s.c. into immune deficient NOD/SCID mice. When tumors reached 0.5-0.8 cm in diameter, mice were treated with vehicle or 50 mg/kg PLX4720 by oral gavage for 3 or 5 consecutive days.

In the case of `CCCS(=O)(=O)Nc1ccc(F)c(C(=O)c2c[nH]c3ncc(Cl)cc23)c1F` [PLX4720], the “tumor M6PR levels by immunohistochemistry” value (3 days after start of the treatment) is reported as “significant increase in tumor M6PR levels”, the “tumor M6PR levels by immunohistochemistry” value (5 days after start (2 days later)) is reported as “further increased” and the “tumor M6PR expression after finish of the treatment” value (“tumor M6PR expression after finish” below) (3 days after finish of the treatment) is reported as “remained high”. The “tumor M6PR expression after finish” value (day 6 after finish) was “slight decrease” and the “tumor M6PR expression after finish” value (day 9 after finishing the treatment) was “returned to the pretreatment level”.
